The values that follow come from ChEMBL document CHEMBL1781889, “A chemometric study of the 5-HT(1A) receptor affinities presented by arylpiperazine compounds” (Eur J Med Chem, 2008).

The target of the assay is T1, 5-hydroxytryptamine receptor 1A (Homo sapiens, UniProt P08908).
T1 sequence (P08908 whole entry): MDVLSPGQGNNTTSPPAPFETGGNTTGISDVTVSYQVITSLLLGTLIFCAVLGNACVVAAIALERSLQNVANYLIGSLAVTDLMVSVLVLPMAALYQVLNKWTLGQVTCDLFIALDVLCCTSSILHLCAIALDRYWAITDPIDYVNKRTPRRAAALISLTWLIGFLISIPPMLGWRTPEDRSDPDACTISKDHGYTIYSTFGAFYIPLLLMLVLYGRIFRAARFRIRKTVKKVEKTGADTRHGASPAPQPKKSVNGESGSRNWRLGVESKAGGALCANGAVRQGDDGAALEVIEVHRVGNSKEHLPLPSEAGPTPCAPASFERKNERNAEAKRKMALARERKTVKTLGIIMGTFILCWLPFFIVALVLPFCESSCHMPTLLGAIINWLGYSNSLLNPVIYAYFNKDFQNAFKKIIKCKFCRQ
Nature of the assay: Binding affinity to 5HT1A receptor.
On to `OC(CCN1CCN(c2ccccn2)CC1)c1ccccc1` (stereo unspecified), for which affinity was put at a Ki of 155 nM.
Compound `COc1ccccc1N1CCN(CCC(Oc2ccc(C(F)(F)F)cc2)c2ccc(-c3ccccc3)cc2)CC1` (stereo unspecified) showed a Ki of 5010 nM.
To `OC(CCN1CCN(c2ccc(Cl)cc2)CC1)c1csc2ccccc12` (stereo unspecified) belongs 5010 nM.
For `COc1ccc(N2CCN(CCC(O)c3ccc(-c4ccccc4)cc3)CC2)cc1` (stereo unspecified), the Ki is 851 nM.
As to `COc1ccccc1N1CCN(CCC(=O)c2cc(C)sc2C)CC1`, affinity was put at a Ki of 5.01 nM.
For the compound `FC(F)(F)c1ccc(OC(CCN2CCN(c3ccccc3Cl)CC2)c2ccccc2)cc1` (stereo unspecified), the Ki was 5010 nM.
Compound `COc1ccccc1N1CCN(CCC(O)c2ccccc2)CC1` (stereo unspecified) had a Ki of 47.9 nM.
To `O=C(CCN1CCN(c2ccc([N+](=O)[O-])cc2)CC1)c1ccccc1` belongs 5010 nM; to `COc1ccccc1N1CCN(CCC(O)c2csc3ccccc23)CC1` (stereo unspecified), 20 nM; to `O=C(CCN1CCN(c2ncccn2)CC1)c1ccccc1`, 120 nM.
The value for `O=C(CCN1CCN(c2ccccc2Cl)CC1)c1ccccc1` was 182 nM.
To `COc1ccc(C(O)CCN2CCN(c3ccccc3OC)CC2)cc1` (stereo unspecified) belongs 324 nM; to `COc1ccccc1N1CCN(CCC(=O)c2ccc3ccccc3c2)CC1`, 251 nM; to `COc1ccccc1N1CCN(CCC(=O)c2ccc([N+](=O)[O-])s2)CC1`, 339 nM.
Turning to `Clc1ccc(N2CCN(CCC(Oc3ccc4c(c3)OCO4)c3ccccc3)CC2)cc1` (stereo unspecified), the Ki was 550 nM.
The compound `COc1ccccc1N1CCN(CCC(=O)c2ccc(C)s2)CC1` had a Ki of 17.4 nM.
Consider `COc1ccccc1N1CCN(CCC(O)c2ccsc2)CC1` (stereo unspecified), for which the Ki was 50.1 nM.
To `O=C(CCN1CCN(c2ccccn2)CC1)c1ccccc1` belongs 50.1 nM.
The value for `COc1ccccc1N1CCN(CCC(O)c2ccc3ccccc3c2)CC1` (stereo unspecified) was 417 nM.
As to `COc1ccc(C(CCN2CCN(c3ccccc3OC)CC2)Oc2ccc(C(F)(F)F)cc2)cc1` (stereo unspecified), the Ki was 1000 nM.
Take `COc1ccccc1N1CCN(CCC(O)c2cccs2)CC1` (stereo unspecified): the Ki is 19.1 nM.
`COc1ccccc1N1CCN(CCC(O)c2ccc(C)s2)CC1` (stereo unspecified) had a Ki of 33.9 nM.
`COc1ccc(N2CCN(CCC(Oc3ccc(C(F)(F)F)cc3)c3ccccc3)CC2)cc1` (stereo unspecified) showed a Ki of 5010 nM.
The value for `COc1cc(F)ccc1N1CCN(CCC(O)c2csc3ccccc23)CC1` (stereo unspecified) was 501 nM; that for `COc1cc(Cl)ccc1N1CCN(CCC(O)c2csc3ccccc23)CC1` (stereo unspecified) was 363 nM.
Compound `O=[N+]([O-])c1ccc(N2CCN(CCC(Oc3ccc(C(F)(F)F)cc3)c3ccccc3)CC2)cc1` (stereo unspecified) had a Ki of 5010 nM.
To `OC(CCN1CCN(c2ccc(Cl)cc2)CC1)c1ccccc1` (stereo unspecified) belongs 794 nM; to `COc1ccccc1N1CCN(CCC(Oc2ccc(C(F)(F)F)cc2)c2ccsc2)CC1` (stereo unspecified), 257 nM.
To `COc1ccccc1N1CCN(CCC(=O)c2cccs2)CC1` belongs 10 nM; to `O=[N+]([O-])c1ccc(N2CCN(CCC(O)c3ccccc3)CC2)cc1` (stereo unspecified), 5010 nM.
`COc1ccccc1N1CCN(CCC(=O)c2ccsc2)CC1` had a Ki of 15.8 nM.
To `COc1cc(F)ccc1N1CCN(CCC(=O)c2csc3ccccc23)CC1` belongs 501 nM.
To `O=C(CCN1CCN(c2ccc(Cl)cc2)CC1)c1ccccc1` belongs 794 nM; to `Fc1ccc(N2CCN(CCC(Oc3ccc(C(F)(F)F)cc3)c3ccccc3)CC2)cc1` (stereo unspecified), 5010 nM.
The compound `O=C(CCN1CCN(c2cccc3ccccc23)CC1)c1ccsc1` had a Ki of 34.7 nM.
`OC(CCN1CCN(c2ccccc2Cl)CC1)c1ccsc1` (stereo unspecified) gave a Ki of 200 nM.
To `OC(CCN1CCN(c2ccc(Cl)cc2)CC1)c1ccc2ccccc2c1` (stereo unspecified) belongs 5010 nM; to `OC(CCN1CCN(c2ccccc2Cl)CC1)c1ccccc1` (stereo unspecified), 115 nM.
The value for `COc1cc(Cl)ccc1N1CCN(CCC(=O)c2csc3ccccc23)CC1` was 501 nM.
To `O=C(CCN1CCN(c2ccc(Cl)cc2)CC1)c1csc2ccccc12` belongs 5010 nM; to `COc1ccccc1N1CCN(CCC(=O)c2ccc(-c3ccccc3)cc2)CC1`, 3630 nM.
`COc1ccc(N2CCN(CCC(=O)c3ccccc3)CC2)cc1` showed a Ki of 5010 nM.
The value for `FC(F)(F)c1ccc(OC(CCN2CCN(c3ncccn3)CC2)c2ccccc2)cc1` (stereo unspecified) was 1580 nM; that for `O=C(CCN1CCN(c2ccc(Cl)cc2)CC1)c1cccs1` was 5010 nM.
Take `Cc1cc(C(=O)CCN2CCN(c3ccccc3O)CC2)c(C)s1`: the Ki is 7.59 nM.
In turn, `COc1ccccc1N1CCN(CCC(=O)c2csc3ccccc23)CC1` had a Ki of 43.7 nM.
The value for `COc1ccc(N2CCN(CCC(O)c3ccccc3)CC2)cc1` (stereo unspecified) was 5010 nM; that for `Cc1ccc(OC(CCN2CCN(c3ccc(Cl)cc3)CC2)c2ccccc2)cc1` (stereo unspecified) was 1450 nM.
In the case of `COc1ccccc1N1CCN(CC/C(=N\O)c2ccsc2)CC1`, the affinity, expressed as Ki, was 6.46 nM.
`O=C(CCN1CCN(c2cccc3ccccc23)CC1)c1csc2ccccc12` had a Ki of 100 nM.
The compound `O=C(CCN1CCN(c2ccccc2O)CC1)c1csc2ccccc12` showed a Ki of 110 nM.
The value for `OC(CCN1CCN(c2ccc(Cl)cc2)CC1)c1cccs1` (stereo unspecified) was 5010 nM; that for `COc1ccccc1N1CCN(CCC(O)c2cc(C)sc2C)CC1` (stereo unspecified) was 12 nM.
To `O=C(CCN1CCN(c2ccc(F)cc2)CC1)c1ccccc1` belongs 794 nM; to `O=C(CCN1CCN(c2ccc(Cl)cc2)CC1)c1ccc2ccccc2c1`, 5010 nM; to `COc1ccccc1N1CCN(CCC(Oc2ccc(C(F)(F)F)cc2)c2ccccc2)CC1` (stereo unspecified), 447 nM.
The value for `Cc1cc(C(=O)CCN2CCN(c3cccc4ccccc34)CC2)c(C)s1` was 100 nM; that for `Cc1cc(C(O)CCN2CCN(c3ccccc3O)CC2)c(C)s1` (stereo unspecified) was 91.2 nM.
Regarding `Oc1ccccc1N1CCN(CCC(O)c2csc3ccccc23)CC1` (stereo unspecified), the inhibition constant (Ki) was 18.2 nM.
To `O=C(CCN1CCN(c2ccccc2Cl)CC1)c1ccsc1` belongs 200 nM; to `COc1ccccc1N1CCN(CC/C(=N\O)c2ccccc2)CC1`, 17.4 nM.

Usually Ki stands for a measure of affinity in units of concentration, obtained from inhibition or displacement. Lower therefore signals a stronger hold on the target.
